# From patent US20250325531A1, “TREATMENT OF SYSTOLIC DYSFUNCTION” (MyoKardia, Inc., priority 2024, published 2025)
# Experiments:
# healthy subjects = test: Safety and tolerability (AEs, ECG, hs-troponin I) after single ascending doses in healthy volunteers; format: in vivo, human
# Protocol: PK and PD data were collected as described herein. […] Changes from Baseline at each postbaseline timepoint were assessed.
# A 12-lead electrocardiogram (ECG) was obtained after the subjects had rested in a supine position for at least 10 minutes. […] Digital 12-lead ECG evaluations was performed after 10 minutes of rest at Screening, predose on Day 1 (within 2 hours of dosing), and at various predetermined time points. Each time an ECG was completed, a 10-second paper ECG rhythm strip would also be obtained and maintained in the subject's source documentation.
# The ECGs were transmitted to the core ECG laboratory who read the recordings in a blinded manner. An automated methodology was utilized with manual over-reading by a cardiologist. The following intervals were measured: RR, PR, QRS, and QT. Heart rate (HR) was calculated as 60/(RR×1000) (with RR expressed in msec) and rounded to the nearest integer.
# Corrected QT interval (QTc) was calculated using the manually over-read QT values per the standard procedures of the central ECG laboratory. Each individual ECG QT value was corrected for HR. The measured QT data were corrected for HR using the Fridericia correction QTcF and the Bazzett method (QTcB) as per the following formulae/method (with QT, RR and QTc expressed in msec): […]
# Any abnormal findings judged by the investigator to be clinically important were recorded as adverse events (AEs). AEs were mapped to system organ classes (SOCs) and preferred terms (PTs) using the Medical Dictionary for Regulatory Activities (MedDRA). AEs were monitored during the study and the data analyzed with respect to overall incidence, severity, and potential relationship to study medication. The blinded AEs were presented to the SRC for review after each cohort to aid in their decision on the dose of the subsequent cohort or if the study should be terminated. […] No ECG changes or symptoms were noted.
# For the final analysis, the AEs were grouped by treatment group with all of the subjects who received placebo pooled as 1 group. AEs with onset on or after the first dose of study medication, or with an onset before the first dose of study medication that increased in severity on or after the first dose of study medication. Treatment-emergent AEs (defined as AEs starting […]) were summarized for the Safety Analysis Population by MedDRA SOC and PT, and by severity and relationship to treatment. Severe and life-threatening AEs, SAEs, and AEs leading to study withdrawal, if any, were presented in data listings.
# Serum samples were drawn for hs-troponin I. Analyses were performed using the Abbott Architect STAT High Sensitivity Troponin I assay.
# [1] = tested on: patients with stable HFrEF; test: TTE pharmacodynamics in SAD cohorts, patients with stable HFrEF; format: in vivo, human; settings: Pooled SAD Cohorts 1 and 2
# Protocol: PD assessment was done by transthoracic echocardiography as described in Example 1 above. TTE evaluations of LVSV (derived from LVOT-VTI), LVEF, LVFS, SET, and other parameters were PD assessments at predetermined time points. The patients were on bed rest for 10 minutes before the TTEs were obtained. In Part 2 (MAD), TTEs were usually obtained before the morning dose and/or at 7 hours postdose (i.e., close to the anticipated peak effect based on the PK profile from the healthy volunteer studies).
# For both Cohorts 1 and 2, the pharmacodynamic effects of Compound I on echocardiographic markers of cardiac structure and function were analyzed by Compound I plasma concentration groups: <2000 ng/ml (low concentration group) and ≥2000 ng/ml (high concentration group) (Table 12).
# [2] = plasma concentration group <2000 ng/mL (n = 7)
# [3] = plasma concentration group ≥2000 ng/mL (n = 12)
smiles,measurement,setting,value
"Cn1cc(S(=O)(=O)[C@@](C)(F)C2CCN(C(=O)Nc3ccon3)CC2)c(C(F)F)n1 [Compound I, (R)-4-(1-((3-(difluoromethyl)-1-methyl-1H-pyrazol-4-yl)sulfonyl)-1-fluoroethyl)-N-(isoxazol-3-yl) piperidine-1-carboxamide]",subjects with AEs related to treatment,healthy subjects; 50 mg (50.0%),3 subjects
same,"serious AE, one subject","healthy subjects; 100 mg, 16-22 hours postdosing",short duration of complete AV block
same,subjects with AEs related to treatment,healthy subjects; 350 mg (50.0%),3 subjects
same,"hs-troponin I concentration, one subject","healthy subjects; 525 mg, 6 hours postdose, upper limit of normal 15",16 ng/L
same,"A wave peak, placebo-corrected mean change from Baseline (LS mean difference)",[1]; [2],-3.2 cm/s
same,"E wave peak, placebo-corrected mean change from Baseline (LS mean difference)",[1]; [2],-1.1 cm/s
same,"E/A ratio, placebo-corrected mean change from Baseline (LS mean difference)",[1]; [2],0.09
same,"E/e′ lateral, placebo-corrected mean change from Baseline (LS mean difference)",[1]; [2],0.6
same,"LVEDD, placebo-corrected mean change from Baseline (LS mean difference)",[1]; [2],0.2 mm
same,"LVEDV, placebo-corrected mean change from Baseline (LS mean difference)",[1]; [2],-2.5 mL
same,"LVEF, placebo-corrected mean change from Baseline (LS mean difference)",[1]; [2],4.1%
same,"LVESD, placebo-corrected mean change from Baseline (LS mean difference)",[1]; [2],−1.3 mm
same,"LVESV, placebo-corrected mean change from Baseline (LS mean difference)",[1]; [2],-4.0 mL
same,"LVFS, placebo-corrected mean change from Baseline (LS mean difference)",[1]; [2],3.1%
same,"LVGLS, placebo-corrected mean change from Baseline (LS mean difference)",[1]; [2],−1.1%
same,"LVSV, placebo-corrected mean change from Baseline (LS mean difference)",[1]; [2],1.0 mL
same,"SET, placebo-corrected mean change from Baseline (LS mean difference)",[1]; [2],8 ms
same,"e′ lateral, placebo-corrected mean change from Baseline (LS mean difference)",[1]; [2],-1 cm/s
same,"A wave peak, placebo-corrected mean change from Baseline (LS mean difference)",[1]; [3],-8.8 cm/s
same,"E wave peak, placebo-corrected mean change from Baseline (LS mean difference)",[1]; [3],-1.6 cm/s
same,"E/A ratio, placebo-corrected mean change from Baseline (LS mean difference)",[1]; [3],0.08
same,"E/e′ lateral, placebo-corrected mean change from Baseline (LS mean difference)",[1]; [3],0.2
same,"LVEDD, placebo-corrected mean change from Baseline (LS mean difference)",[1]; [3],−0.3 mm
same,"LVEDV, placebo-corrected mean change from Baseline (LS mean difference)",[1]; [3],-1.9 mL
same,"LVEF, placebo-corrected mean change from Baseline (LS mean difference)",[1]; [3],4.4%
same,"LVESD, placebo-corrected mean change from Baseline (LS mean difference)",[1]; [3],−1.8 mm
same,"LVESV, placebo-corrected mean change from Baseline (LS mean difference)",[1]; [3],-3.5 mL
same,"LVFS, placebo-corrected mean change from Baseline (LS mean difference)",[1]; [3],2.8%
same,"LVGLS, placebo-corrected mean change from Baseline (LS mean difference)",[1]; [3],−2.1%
same,"LVSV, placebo-corrected mean change from Baseline (LS mean difference)",[1]; [3],9.0 mL
same,"SET, placebo-corrected mean change from Baseline (LS mean difference)",[1]; [3],36 ms
same,"e′ lateral, placebo-corrected mean change from Baseline (LS mean difference)",[1]; [3],-1 cm/s
